Assay results as given in patent US9688615B2, “Benzimidazole inhibitors of the sodium channel” (Mark G. DeGiacomo, priority 2011, dated 2017).
Read-outs that look alike come from different tables or passages of the source.

Tested on: L5/L6 spinal nerve ligation (SNL) rats, mechanical hyperalgesia
Experiment: L5/L6 Spinal Nerve Ligation (SNL) Chung pain model, assessment of mechanical hyperalgesia (digital Randall-Selitto)
Assay type: in vivo, male Sprague-Dawley rats
Conditions: p.o.; for Response Threshold (g) 1 hr / Response Threshold (g) 2 hr / Response Threshold (g) 4 hr / effect on mechanical hyperalgesia compared to vehicle treated animals / inhibition in vivo at 30 mg/kg: 30 mg/kg; for effect on mechanical hyperalgesia compared to vehicle treated animals: time points 1, 2, 4 hours after administration
Excerpt: The Spinal Nerve Ligation is an animal model representing peripheral nerve injury generating a neuropathic pain syndrome. In this model experimental animals develop the clinical symptoms of tactile allodynia and hyperalgesia. L5/L6 Spinal nerve ligation (SNL) injury was induced using the procedure of Kim and Chung (Kim et al., Pain 50:355-363 (1992)) in male Sprague-Dawley rats (Harlan; Indianapolis, Ind.) weighing 200 to 250 grams. An exemplary protocol is provided below
The animals were anesthetized with isoflurane, the left L6 transverse process was removed, and the L5 and L6 spinal nerves were tightly ligated with 6-0 silk suture. The wound was closed with internal sutures and external tissue adhesive.
Baseline and post-treatment values for mechanical hyperalgesia were evaluated using a digital Randall-Selitto device (dRS; IITC Life Sciences, Woodland Hills, Calif.). Animals were allowed to acclimate to the testing room for a minimum of 30 minutes before testing. Animals were placed in a restraint sling that suspends the animal, leaving the hind limbs available for testing. Paw compression threshold was measured once at each time point for the ipsilateral and contralateral paws. The stimulus was applied to the plantar surface of the hind paw by a dome-shaped tip placed between the 3rd and 4th metatarsus, and pressure was applied gradually over approximately 10 seconds. Measurements are taken from the first observed nocifensive behavior of vocalization, struggle or withdrawal. A cut-off value of 300 g was used to prevent injury to the animal. The mean and standard error of the mean (SEM) were determined for each paw for each treatment group. Fourteen days after surgery, mechanical hyperalgesia was assessed and rats were assigned to treatment groups based on pre-treatment baseline values. Prior to initiating drug delivery, baseline behavioural testing data can be obtained. At selected times after infusion of the Test or Control Article behavioural data can then be collected again.

[1] = Rattus norvegicus, po, 1 hr after administration, read-out: % Reversal 1 hr
[2] = Rattus norvegicus, po, 2 hr after administration, read-out: % Reversal 2 hr
[3] = Rattus norvegicus, po, 4 hr after administration, read-out: % Reversal 4 hr

Compound | Response Threshold (g) 1 hr (1 hr after administration) | Response Threshold (g) 2 hr (2 hr after administration) | Response Threshold (g) 4 hr (4 hr after administration) | effect on mechanical hyperalgesia compared to vehicle treated animals | inhibition in vivo at 30 mg/kg [1] | inhibition in vivo at 30 mg/kg [2] | inhibition in vivo at 30 mg/kg [3] | inhibition in vivo at 100 mg/kg (Rattus norvegicus, po, 2 h, 100 mg/kg, 2 hr after administration, read-out: % Reversal 2 hr)
FC(F)(F)c1cc(C(F)(F)F)c2nc(CC3CNC3)[nH]c2c1 [Compound (1), 2-(azetidin-3-ylmethyl)-4,6-bis(trifluoromethyl)-1H-benzo[d]imidazole] | 93.8 g | 120.6 g | 113.3 g | significantly decreased mechanical hyperalgesia at 2 and 4 hours | 9.2% | 30.2% | 24.4% | 
NCC(=O)NCc1nc2cc(C(F)(F)F)cc(C(F)(F)F)c2[nH]1 [Compound (24), 2-amino-N-((5,7-bis(trifluoromethyl)-1H-benzo[d]imidazol-2-yl)methyl)acetamide] | 84.0 g | 118.4 g | 116.6 g | no significant effect on mechanical hyperalgesia at any time point tested | 0.8% | 27.9% | 26.5% | 
CC(C)C[C@H](CN)Cc1nc2c(C(F)(F)F)cc(C(F)(F)F)cc2[nH]1 [Compound (31), (S)-2-((4,6-bis(trifluoromethyl)-1H-benzo[d]imidazol-2-yl)methyl)-4-methylpentan-1-amine] | 107.9 g | 139.0 g | 109.9 g | significantly decreased mechanical hyperalgesia 2 and 4 hours | 17.2% | 48% | 19.2% | 
NCCc1nc2cc(C(F)(F)F)cc(C(F)(F)F)c2[nH]1 [Compound (33), 2-(5,7-bis(trifluoromethyl)-1H-benzo[d]imidazol-2-yl)ethanamine] | 113.6 g | 136.9 g | 150.8 g | significantly decreased mechanical hyperalgesia at 1, 2 and 4 hours | 22.4% | 44.7% | 58.1% | 
CC(C)(N)Cc1nc2cc(C(F)(F)F)cc(C(F)(F)F)c2[nH]1 [Compound (34), 1-(5,7-bis(trifluoromethyl)-1H-benzo[d]imidazol-2-yl)-2-methylpropan-2-amine] | 104.5 g | 144.8 g | 132.4 g | significantly decreased mechanical hyperalgesia 2 and 4 hours | 15.3% | 54.2% | 42.3% | 
CC(C)(N)C(=O)NCc1nc2cc(C(F)(F)F)cc(C(F)(F)F)c2[nH]1 [Compound (36), 2-amino-N-((5,7-bis(trifluoromethyl)-1H-benzo[d]imidazol-2-yl)methyl)-2-methylpropanamide] | 87.8 g | 107.0 g | 112.3 g | no significant effect on mechanical hyperalgesia at any time point tested | -0.5% | 18.6% | 23.8% | 
CNCc1nc2cc(C(F)(F)F)cc(C(F)(F)F)c2[nH]1 [Compound (41), 1-(5,7-bis(trifluoromethyl)-1H-benzo[d]imidazol-2-yl)-N-methylmethanamine] | 99.6 g | 108.3 g | 109.0 g | significantly decreased mechanical hyperalgesia at 2 and 4 hours | 13.8% | 20.7% | 21.3% | 
CN(Cc1nc2cc(C(F)(F)F)cc(C(F)(F)F)c2[nH]1)S(N)(=O)=O [Compound (56), N-{[4,6-bis(trifluoromethyl)-1H-benzimidazol-2-yl]methyl}-N-methylsulfuric diamide] | 110.8 g | 131.4 g | 140.4 g | significantly decreased mechanical hyperalgesia 2 and 4 hours | 19.8% | 40.4% | 49.4% | 
O=C1CNCCN1Cc1nc2cc(C(F)(F)F)cc(C(F)(F)F)c2[nH]1 [Compound (110), 1-((5,7-bis(trifluoromethyl)-1H-benzo[d]imidazol-2-yl)methyl)piperazin-2-one] | 100.6 g | 148.5 g | 126.1 g | significantly decrease mechanical hyperalgesia at two and four hours | 14.6% | 51.2% | 34.1% | 
NCC1(CC(=O)O)CCCCC1 [Gabapentin] |  |  |  |  |  |  |  | 55.3%
